Measurements as given in patent US10160762B2, “6-alkyl dihydropyrazolopyrimidinone compounds as PDE2 inhibitors” (Merck Sharp & Dohme Corp., priority 2015, dated 2018).
Where two headings read alike, the source gives them in different places.

Molecular target: T1, human PDE2A1 (Homo sapiens, UniProt O00408)
T1 construct: GST; purchased BPS Bioscience (San Diego, Calif.) 60020; host or cells: insect cells
Experiment: IMAP FP PDE assay, human PDE2A1
Assay type: biochemical
Summary of the method: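 GST-tagged human PDE2A1 from insect cells; substrate 50 nM FAM-cAMP containing 1000 nM cGMP in Tris pH 7.2/MgCl2/DTT buffer, enzyme giving 20% conversion. 60 min at room temperature, IMAP binding reagent, fluorescence polarization read. Apparent Ki from FP readings using apparent KM 10,000 nM; ten-point 3-fold titrations.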

[1] = Lab A, read-out: Human PDE2 Ki (nM) Lab A
[2] = Lab B, read-out: Human PDE2 Ki (nM) Lab B

T1 sequence (O00408 1-920 isoform O00408-2): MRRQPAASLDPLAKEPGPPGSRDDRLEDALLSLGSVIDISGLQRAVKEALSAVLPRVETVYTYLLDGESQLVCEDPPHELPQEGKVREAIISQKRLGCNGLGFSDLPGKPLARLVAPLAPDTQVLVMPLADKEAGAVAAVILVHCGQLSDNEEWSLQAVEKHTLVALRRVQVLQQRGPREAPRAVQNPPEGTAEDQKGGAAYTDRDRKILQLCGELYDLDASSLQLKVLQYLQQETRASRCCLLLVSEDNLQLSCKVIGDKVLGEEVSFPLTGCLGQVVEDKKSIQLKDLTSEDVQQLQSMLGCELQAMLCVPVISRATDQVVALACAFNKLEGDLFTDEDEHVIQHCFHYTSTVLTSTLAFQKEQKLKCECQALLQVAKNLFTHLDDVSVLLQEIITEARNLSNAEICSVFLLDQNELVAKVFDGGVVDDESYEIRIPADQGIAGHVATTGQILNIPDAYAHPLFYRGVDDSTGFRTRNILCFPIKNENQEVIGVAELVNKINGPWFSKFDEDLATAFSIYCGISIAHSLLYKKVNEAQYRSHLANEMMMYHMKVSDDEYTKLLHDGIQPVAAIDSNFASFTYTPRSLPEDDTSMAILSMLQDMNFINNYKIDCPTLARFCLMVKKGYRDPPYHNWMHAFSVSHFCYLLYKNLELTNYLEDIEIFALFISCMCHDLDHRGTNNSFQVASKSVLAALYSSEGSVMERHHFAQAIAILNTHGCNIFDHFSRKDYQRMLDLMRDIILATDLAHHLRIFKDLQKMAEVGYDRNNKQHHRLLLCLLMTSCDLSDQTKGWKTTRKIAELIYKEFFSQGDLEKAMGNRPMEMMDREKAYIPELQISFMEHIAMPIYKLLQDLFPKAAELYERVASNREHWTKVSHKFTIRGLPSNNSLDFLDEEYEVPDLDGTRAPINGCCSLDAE

Structure (SMILES)	Ki [1]	Ki [2]
Cc1nc2c(c(CO)nn2C(C)c2ccc(C(F)(F)F)c(F)c2)c(=O)[nH]1 (stereo not shown) [Example 1, 1-(1-(3-Fluoro-4-(trifluoromethyl)phenyl)ethyl)-3-(hydroxymethyl)-6-methyl-1H-pyrazolo[3,4-d]pyrimidin-4(5H)-one]	1.8 nM	5.3 nM
Cc1ccc(C(C)n2nc(CO)c3c(=O)[nH]c(C)nc32)cc1 (stereo not shown) [Example 2, 3-(Hydroxymethyl)-6-methyl-1-(1-p-tolylethyl)-1H-pyrazolo[3,4-d]pyrimidin-4(5H)-one]	18 nM	28 nM
Cc1nc2c(c(CO)nn2C(C)c2ccc(C3CC3)cc2)c(=O)[nH]1 (stereo not shown) [Example 3, 1-(1-(4-Cyclopropylphenl)ethyl)-3-(hydroxymethyl)-6-methyl-1H-pyrazolo[3,4-d]pyrimidin-4(5H)-one]		3.7 nM
Cc1nc2c(c(CO)nn2C(C)c2ccc(OC(F)(F)F)cc2)c(=O)[nH]1 (stereo not shown) [Example 4]	4.6 nM	5.9 nM
Cc1nc2c(c(CO)nn2C(c2ccc(C(F)(F)F)cc2)C(C)C)c(=O)[nH]1 (stereo not shown) [Example 5, 3-(Hydroxymethyl)-6-methyl-1-(2-methyl-1-(4-(trifluoromethyl)phenyl)propyl)-1H-pyrazolo[3,4-d]pyrimidin-4(5H)-one]	0.56 nM	0.74 nM
Cc1nc2c(c(CO)nn2C(c2ccc(C(F)(F)F)cc2)C(F)(F)F)c(=O)[nH]1 (stereo not shown) [Example 6, 3-(Hydroxymethyl)-6-methyl-1-(2,2,2-trifluoro-1-(4-(trifluoromethyl)phenyl)ethyl)-1H-pyrazolo[3,4-d]pyrimidin-4(5H)-one]		3.1 nM
Cc1nc2c(c(CO)nn2C(C)c2ccc(C(F)(F)F)cc2)c(=O)[nH]1 (stereo not shown) [Example 7, 3-(Hydroxymethyl)-6-methyl-1-(1-(4-(trifluoromethyl)phenyl)ethyl)-1H-pyrazolo[3,4-d]pyrimidin-4(5H)-one]	11 nM	17 nM
Cc1nc2c(c(CO)nn2Cc2ccc(C(F)(F)F)cc2)c(=O)[nH]1 [Example 8, 3-(Hydroxymethyl)-6-methyl-1-[4-(trifluoromethyl)benzyl]-1,5-dihydro-4H-pyrazolo[3,4-d]pyrimidin-4-one]	100 nM	105 nM
Cc1nc2c(c(CO)nn2C(C)(C)c2ccc(C(F)(F)F)cc2)c(=O)[nH]1 [Example 9, 3-(Hydroxymethyl)-6-methyl-1-{1-methyl-1-[4-(trifluoromethyl)phenyl]ethyl}-1,5-dihydro-4H-pyrazolo[3,4-d]pyrimidin-4-one]	27 nM	60 nM
Cc1nc2c(c(CO)nn2C(c2ccc(C(F)(F)F)cc2)C2CC2)c(=O)[nH]1 (stereo not shown) [Example 28, 1-(Cyclopropyl(4-(trifluoromethyl)phenyl)methyl)-3-(hydroxymethyl)-6-methyl-1H-pyrazolo[3,4-d]pyrimidin-4(5H)-one]		1.6 nM
Cc1nn(C(C)c2ccc(C(F)(F)F)cc2)c2nc(Cc3cccc(O)c3)[nH]c(=O)c12 (stereo not shown) [Example 30, 6-(3-Hydroxybenzyl)-3-methyl-1-(1-(4-(trifluoromethyl)phenyl)ethyl)-1H-pyrazolo[3,4-d]pyrimidin-4(5H)-one]	4.6 nM	12 nM
Cc1nn(C(C)c2ccc(C(F)(F)F)cc2)c2nc(Cc3ccccc3O)[nH]c(=O)c12 (stereo not shown) [Example 31, 6-(2-Hydroxybenzyl)-3-methyl-1-(1-(4-(trifluoromethyl)phenyl)ethyl)-1H-pyrazolo[3,4-d]pyrimidin-4(5H)-one]	43 nM	
CCOCCc1nc2c(c(C)nn2C(C)c2ccc(C(F)(F)F)cc2)c(=O)[nH]1 (stereo not shown) [Example 35, 6-(2-Ethoxyethyl)-3-methyl-1-(1-(4-(trifluoromethyl)phenyl)ethyl)-1H-pyrazolo[3,4-d]pyrimidin-4(5H)-one]	105 nM	
CCc1nc2c(c(C)nn2C(C)c2ccc(C(F)(F)F)cc2)c(=O)[nH]1 (stereo not shown) [Example 38, 6-Ethyl-3-methyl-1-{1-[4-(trifluoromethyl)phenyl]ethyl}-1,5-dihydro-4H-pyrazolo[3,4-d]pyrimidin-4-one]	28 nM	
